Measured values reported in US5981748A, “Synthesis of optically pure compounds useful as GARFT inhibitors and their intermediates” (Agouron Pharmaceuticals, Inc., priority 1998, dated 1999).

Target: catalytic domain of the human GARFT (Homo sapiens, UniProt P22102)
Experiment: biochemical
Experimental: Reactions mixtures were prepared containing the catalytic domain of the human GARFT, 0-250 nM test compound, 20 μM glycinamide ribonucleotide (GAR), 10 or 20 μM N^10 -formyl-5,8-dideazafolate (FDDF), 50 mM HEPES-KOH (pH 7.5), and 50 mM KCl. The reaction was initiated with the addition of enzyme to a final concentration of 11 nM, followed by monitoring of the increase in absorbance at 294 nm at 20° C. (ε294 =18.9 mM^-1 cm^-1).
The GARFT inhibition constant (Ki) was determined from the dependence of the steady-state catalytic rate on the inhibitor and substrate concentration. […] The Michaelis constant for FDDF, Km, was determined independently by the dependence of the catalytic rate on the FDDF concentration. Data for both the Km and Ki determinations were fitted by non-linear methods to the Michaelis equation or to the Michaelis equation for competitive inhibition, as appropriate.

Chain of catalytic domain of the human GARFT (P22102 810-1010 limits assumed): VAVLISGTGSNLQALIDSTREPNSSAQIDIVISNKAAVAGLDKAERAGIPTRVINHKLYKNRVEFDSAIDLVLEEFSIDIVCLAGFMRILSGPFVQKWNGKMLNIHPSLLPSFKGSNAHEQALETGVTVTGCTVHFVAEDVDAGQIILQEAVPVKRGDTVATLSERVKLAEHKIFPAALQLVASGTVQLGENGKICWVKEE

Ki: 3 nM
SMILES: Nc1nc2c(c(=O)[nH]1)S[C@H](CCc1ccc(C(=O)N[C@@H](CCC(=O)O)C(=O)O)s1)CN2 [Compound 15, 2-(5-[2-(2-Amino-4-oxo-4,6,7,8-tetrahydro-3H-pyrimido[5,4-b][1,4]thiazin-6(R)-yl)-ethyl]-thiophene)-2-L-glutamic acid]
